From patent US20220251152A1, “COMPOSITIONS AND METHODS FOR SELECTIVE PROTEIN DEGRADATION” (Novartis AG, priority 2019, published 2022)
“Also recorded” adds a separate entry of the source. Where a SMILES comes first, the peptide text is derived from it. The star is where a group is joined. Cbz = O=C(OCc1ccccc1)*

Key:
[1] = test system: NanoLuciferase fused to various IKZF3-based degradation tags; experiment: Western blot of variant IKZF3-based degradation tags fused to NanoLuciferase in HEK293T cells; format: cell-based, human; settings: tag fused to N-terminus of NanoLuciferase
Description: Additionally, the IKZF3-based degradation tags were modified using the following strategies:
(1) deleting N-terminal and/or C-terminal amino acid residues;
Protein degradation was measured using western blot as described in Example 2.

[2] = test system: IKZF3 degron-tagged melanogenesis associated transcription factor (MITF); experiment: Western blot of IKZF3-tagged MITF in HEK293T cells; format: cell-based, human; settings: for ability of the tag to mediate lenalidomide-dependent degradation of MITF: HEK293T, Western blot; for degradation of tagged MITF mediated by IMiD: 10 μM compound for 24 hours, IKZF3 136-180 and 236-249- and lysine free-tagged MITF
Description: IKZF3-based degradation tags were evaluated for their ability to facilitate the degradation of melanogenesis associated transcription factor (MITF) or avian myelocytomatosis viral oncogene (MYC) homolog by Western blot. In addition to the IKZF3-based degradation tags, MITF and MYC were also fused to a FLAG tag to facilitate their detection using an anti-FLAG antibody.
DMSO was used as vehicle control.

[3] = molecular target: T1, IKZF3 136-180 and 236-249-tagged NanoLuciferase (Homo sapiens, UniProt Q96SW2+Q9UKT9, DEL181-196/S197T); format: cell-based; settings: 1-hour pre-treatment (10 μM MG132; 128 or 12.8 ng/mL cyclohexamide)
T1 construct: expressed in transfected cells; host or cells: HEK293T
Description: DMSO was included as a vehicle control. Luminescence was measured by reading each 384-well plate on a ViewLux® with 1-second and 5-second exposures. The data was imported into Spotfire® and visualizations were made by doing a NC3 normalization according to the following formula: 100*([Luminescence]/[DMSO]).

[4] = test system: HilD-tagged CAR19 or FurON-CAR19 (NFAT luciferase reporter); experiment: JNL NFAT luciferase reporter assay, lenalidomide dose-response at three treatment time points; format: cell-based, human
Description: This study used the JNL cell line described above, which is a Jurkat cell line modified with an NFAT luciferase reporter. Co-culturing of CAR19-expressing JNL cells and CD19-expressing B cells activates the NFAT signaling, leading to luciferase expression.
For target cell co-culture, K562 cells or CD19-expressing K562 cells were added to each well containing JNL cells and cultured on a GNF Systems Ultra-high throughput screening system in a 37° C. and 5% CO2 incubator.

[5] = test system: IKZF3 136-180 and 236-249-tagged NanoLuciferase; settings: 10 μM MG132 one-hour pre-treatment, then 100 μM lenalidomide
Description: Samples were pelleted, lysed, run on a protein gel, transferred to a membrane, probed with antibody and developed with film.

[6] = molecular target: IKZF3 136-180 and 236-249-tagged CD19 (Homo sapiens, UniProt P15391); settings: 10 μM MG132 pre-treatment, 10 μM lenalidomide
Description: In particular, flow cytometry analysis was conducted to determine whether there was a difference between the total amount of target protein degraded and the total amount of target protein expressed on the cell surface.
CD19 was stained with anti-human CD19 antibody (BD Pharmingen 555413).

HilD-Tau (wild type) = molecular target: T2, HilD-Tau (wild type) (Homo sapiens, UniProt P10636+Q96SW2); experiment: Quantification of HilD-Tau degradation by Western analysis in HEK293T cells; format: cell-based; settings: 1 μM MLN4924 co-treatment including 1 hour pretreatment
T2 construct: expressed in transfected cells; host or cells: HEK293T
Description: One day prior to transfection, HEK293T cells were plated at a density of 150,000 per well in a 24 well plate. […] Cells were incubated overnight. […] Plates were incubated on ice with occasional shaking for 15 minutes. Lysate was then cleared by centrifugation at 15000 g, 4° C. for 15 minutes. LDS buffer and reducing agent were added to the cleared lysate and then samples were heated at 95° C. for 8 minutes. Samples were run on a 10% bis-tris gel at 150V for 70 minutes. Blots were transferred using the Biorad turboblot (Mixed molecular weight setting). Blots were probed with DAKO Tau (total tau) (Dako #A0024), actin (Cell signaling technologies #3700S), and AT8 (phospho-Tau) (Thermo Fisher #MN1020).

[7] = test system: CAR19 fused to HilD tag and/or FurON; experiment: Western blot of CAR19 fused to HilD tag and/or FurON in JNL cells; format: cell-based, human; settings: 10 μM lenalidomide, 24 hours; FurON constructs with 1 μM bazedoxifene
Description: Viruses were prepared from maxi preps and used to transduce JNL cells. Either 275 μL of viral supernatant or 700 μL of viral supernatant was used for transduction. JNL cells are Jurkat cells engineered with a luciferase gene under control of the NFAT promoter.
Briefly, cells were diluted to 0.5×10^6 in 3 mL total in 6 well dishes. […] Bazedoxifene was added at a final concentration of 1 μM to every well that contained a cell line expressing a fusion comprising FurON. […] Cells were incubated at 37° C. and 5% CO2 overnight.
Lysates were centrifuged, supernatant transferred to new tubes and protein quantities read by Lowry Assay (BioRad 5000111). Each sample was normalized to 30 μg total protein in a 20 μL volume with 4× sample buffer (Thermo Scientific NP0007) and 10× reducing agent (Thermo Scientific NP0009). Samples were subjected to Western blot analysis using a mouse anti-V5 antibody (Thermo Scientific MA5-15253) at 1:1000 dilution, a mouse anti-actin antibody (Sigma Aldrich A5441) at 1:10000 dilution, and/or a mouse anti-CD3z antibody (BD 551034) at 1:1000 dilution.
Cells were harvested and subjected to Western blot as described above using a mouse anti-actin antibody (Sigma Aldrich A5441) at 1:10000 dilution or a mouse anti-CD3zeta antibody (BD 551034) at 1:1000 dilution.

Molecule: IKZF3 136-180: tag with amino acid residues 136-180 of IKZF3, SEQ ID NO: 5
- ability of the tag to facilitate lenalidomide-dependent degradation of NanoLuciferase [1]: able to mediate lenalidomide-dependent degradation
- ability of the tag to mediate lenalidomide-dependent degradation of MITF [2]: to a lesser degree than IKZF3 136-180 and 236-249

Molecule: lysine free IKZF3 136-180 and 236-249: variant in which every lysine residue in the tag was mutated to arginine, SEQ ID NO: 4
- ability of the tag to mediate lenalidomide-dependent degradation of MITF [2]: did not significantly impact the ability of this tag to mediate lenalidomide-dependent degradation of MITF

Molecule: CC(C)C[C@@H](C=O)NC(=O)[C@H](CC(C)C)NC(=O)[C@H](CC(C)C)NC(=O)OCc1ccccc1 [MG132] (Cbz-Leu-Leu-Leu-aldehyde)
- effect of pre-treatment on lenalidomide-dependent degradation of NanoLuciferase [3]: blocked
- effect of MG132 on lenalidomide-dependent degradation of tagged MITF ([2]; MG132 treatment): blocked
- rescue by MG132 of lenalidomide-induced reduction of reporter signal ([4]; HilD-tagged CAR19 or lysine-free-HilD-tagged CAR19 (constructs 769, 770)): partially rescued
- rescue by MG132 of lenalidomide-induced reduction of reporter activation ([4]; construct 767, MG132 5 hours prior to target cells): mostly rescued
- effect of MG132 on lenalidomide-dependent degradation [5]: not observed; also recorded: blocked
- effect of MG132 on lenalidomide-induced reduction of surface CD19 [6]: partially blocked

Molecule: NS(=O)(=O)OC[C@@H]1C[C@@H](n2ccc3c(N[C@H]4CCc5ccccc54)ncnc32)C[C@@H]1O [MLN4924]
- effect of MLN4924 on lenalidomide-induced degradation of Tau (HilD-Tau (wild type)): sensitive; also recorded: prevented degradation of Tau

Molecule: Nc1cccc2c1C(=O)N(C1CCC(=O)NC1=O)C2=O (centres unmarked) [pomalidomide, 4-amino-2-(2,6-dioxopiperidin-3-yl)isoindoline-1,3-dione, reference compound]
- degradation of tagged MITF mediated by IMiD [2]: effectively facilitated degradation of tagged MITF
- degradation of tagged MITF mediated by IMiD ([2]; listed as Pomalidomide): slightly greater extent than lenalidomide

Molecule: C[C@@H]1C[C@@H]([C@H](O)CC2CC(=O)NC(=O)C2)C(=O)[C@@H](C)C1 [cyclohexamide]
- effect of pre-treatment on lenalidomide-dependent degradation of NanoLuciferase [3]: No obvious reduction

Molecule: IKZF3 141-163 MALEK: tag comprising the amino acid sequence of SEQ ID NO: 88 (TGERPFQCNQCGASFTQKGNLLRMALEKMALEKMALE; source: /note="Description of Unknown: IKZF3 sequence")
- ability of the tag to facilitate lenalidomide-dependent degradation of NanoLuciferase [1]: did not mediate lenalidomide-induced degradation; also recorded: did not mediate lenalidomide induced degradation

Molecule: IKZF3 136-180 Q147H: variant of IKZF3 136-180 with glutamine at position 147 replaced with histidine, SEQ ID NO: 27
- ability of the tag to mediate lenalidomide-dependent degradation of MITF [2]: blocked the ability of IKZF3 136-180 to mediate the lenalidomide-dependent degradation of MITF; also recorded: did not show degradation

Molecule: O=C1CCC(N2C(=O)c3ccccc3C2=O)C(=O)N1 (centres unmarked) [thalidomide, 2-(2,6-dioxopiperidin-3-yl)isoindoline-1,3-dione, reference compound]
- degradation of tagged MITF mediated by IMiD [2]: much less effective

Molecule: IKZF3 136-180 and 236-249: IKZF3-based degradation tag with amino acid residues 136-180 and 236-249 of human IKZF3, SEQ ID NO: 3 (HKRSHTGERPFQCNQCGASFTQKGNLLRHIKLHTGEKPFKCHLCNTASAEARHIKAEMG; source: /note="Description of Unknown: IKZF3 sequence")
- ability of the tag to facilitate lenalidomide-dependent degradation of NanoLuciferase [1]: facilitated lenalidomide-dependent degradation of NanoLuciferase; also recorded: facilitated lenalidomide-induced degradation
- ability of the tag to mediate lenalidomide-dependent degradation of MITF [2]: more effective than IKZF3 136-180

Molecule: IKZF3 136-170 MALEK: IKZF3 136-170 with helix MALEKMALEKMALE, SEQ ID NO: 86
- ability of the tag to facilitate lenalidomide-dependent degradation of NanoLuciferase [1]: retained the ability to facilitate lenalidomide-dependent degradation; also recorded: able to mediate lenalidomide-dependent degradation; also recorded: facilitated lenalidomide-induced degradation

B1: construct 765: signal peptide, FurOn, and CAR19 (protein)
chain: RSSLALSLTADQMVSALLDAEPPILYSEYDPTRPFSEASMMGLLTNLADRELVHMINWAKRVPGFVDLALHDQVHLLECAWMEILMIGLVWRSMEHPGKLLFAPNLLLDRNQGKCVEGGVEIFDMLLATSSRFRMMNLQGEEFVCLKSIILLNSGVYTFLSSTLKSLEEKDHIHRVLDKITDTLIHLMAKAGLTLQQQHQRLAQLLLILSHIRHMSSKRMEHLYSMKCKNVVPLSDLLLEMLDAHRLGTGAEDPRPSRKRRSLGDVGEIVMTQSPATLSLSPGERATLSCRASQDISKYLNWYQQKPGQAPRLLIYHTSRLHSGIPARFSGSGSGTDYTLTISSLQPEDFAVYFCQQGNTLPYTFGQGTKLEIKGGGGSGGGGSGGGGSQVQLQESGPGLVKPSETLSLTCTVSGVSLPDYGVSWIRQPPGKGLEWIGVIWGSETTYYQSSLKSRVTISKDNSKNQVSLKLSSVTAADTAVYYCAKHYYYGGSYAMDYWGQGTLVTVSSTTTPAPRPPTPAPTIASQPLSLRPEACRPAAGGAVHTRGLDFACDIYIWAPLAGTCGVLLLSLVITLYCKRGRKKLLYIFKQPFMRPVQTTQEEDGCSCRFPEEEEGGCELRVKFSRSADAPAYQQGQNQLYNELNLGRREEYDVLDKRRGRDPEMGGKPRRKNPQEGLYNELQKDKMAEAYSEIGMKGERRRGKGHDGLYQGLSTATKDTYDALHMQALPPR
- effect of lenalidomide on the CAR construct (Western blot) [7]: did not have any impact
